In the supplement of paper PMC10307832:

Assays:
Experiment in all cases: relative viability (nuclei count vs DMSO), 5 days (fraction); higher = more cells survive
RU-SKI 43 + Foretinib = compound: CC[C@@H](C)CNCC(=O)N1CCC2=C([C@@H]1COC3=CC=CC(=C3)C)C=CS2 [RU-SKI 43] + COc1cc2c(Oc3ccc(NC(=O)C4(C(=O)Nc5ccc(F)cc5)CC4)cc3F)ccnc2cc1OCCCN1CCOCC1 [Foretinib] (partner 0.25 µM)
Summary of the method: (§1)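 Medians of duplicate plates are given as relative viability. That measure is the nuclei count in treated wells divided by the count in vehicle wells. Counts were taken on 4× images of lung cancer cell lines in 1536-well plates, 5 days after pin-tool dosing the day after seeding with one drug alone or a fixed anchor-drug dose plus five library-drug doses (not always all listed) in √10 steps.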

Irinotecan + Alpelisib = compound: CCc1c2c(nc3ccc(OC(=O)N4CCC(N5CCCCC5)CC4)cc13)-c1cc3c(c(=O)n1C2)COC(=O)[C@]3(O)CC [Irinotecan] + Cc1nc(NC(=O)N2CCC[C@H]2C(N)=O)sc1-c1ccnc(C(C)(C)C(F)(F)F)c1 [Alpelisib] (partner 2 µM)
Summary of the method: as §1

Irinotecan + Navitoclax = compound: CCc1c2c(nc3ccc(OC(=O)N4CCC(N5CCCCC5)CC4)cc13)-c1cc3c(c(=O)n1C2)COC(=O)[C@]3(O)CC [Irinotecan] + CC1(C)CCC(c2ccc(Cl)cc2)=C(CN2CCN(c3ccc(C(=O)NS(=O)(=O)c4ccc(N[C@H](CCN5CCOCC5)CSc5ccccc5)c(S(=O)(=O)C(F)(F)F)c4)cc3)CC2)C1 [Navitoclax] (partner 0.5 µM)
Summary of the method: as §1

MK-8033 + Trametinib = compound: Cn1cc(-c2cnc3ccc4ccc(CS(=O)(=O)NCc5ccccn5)cc4c(=O)c3c2)cn1 [MK-8033] + CC(=O)Nc1cccc(-n2c(=O)n(C3CC3)c(=O)c3c(Nc4ccc(I)cc4F)n(C)c(=O)c(C)c32)c1 [Trametinib] (partner 0.02 µM)
Summary of the method: as §1

Cell Line | relative viability (RU-SKI 43 + Foretinib; first compound 0.1 µM) | relative viability (RU-SKI 43 + Foretinib; first compound 0.3162 µM) | relative viability (RU-SKI 43 + Foretinib; first compound 1 µM) | relative viability (RU-SKI 43 + Foretinib; first compound 3.162 µM) | relative viability (RU-SKI 43 + Foretinib; first compound 10 µM) | relative viability (Irinotecan + Alpelisib; first compound 0.6325 µM) | relative viability (Irinotecan + Alpelisib; first compound 2 µM) | relative viability (Irinotecan + Alpelisib; first compound 6.325 µM) | relative viability (Irinotecan + Alpelisib; first compound 20 µM) | relative viability (Irinotecan + Navitoclax; first compound 0.6325 µM) | relative viability (Irinotecan + Navitoclax; first compound 2 µM) | relative viability (Irinotecan + Navitoclax; first compound 6.325 µM) | relative viability (Irinotecan + Navitoclax; first compound 20 µM) | relative viability (MK-8033 + Trametinib; first compound 0.02 µM) | relative viability (MK-8033 + Trametinib; first compound 0.06325 µM) | relative viability (MK-8033 + Trametinib; first compound 0.2 µM) | relative viability (MK-8033 + Trametinib; first compound 0.6325 µM) | relative viability (MK-8033 + Trametinib; first compound 2 µM)
SK-LU-1 | 0.831 | 0.979 | 0.826 | 0.836 | 0.638 | 0.459 | 0.541 | 0.351 | 0.273 | 0.225 | 0.334 | 0.296 | 0.263 | 0.484 | 0.482 | 0.437 | 0.445 | 0.468
SK-MES-1 | 1.09 | 1.04 | 0.97 | 1.1 | 0.907 | 0.997 | 0.877 | 0.426 | 0.267 | 1.29 | 1.22 | 0.226 | 0.208 | 0.44 | 0.478 | 0.539 | 0.583 | 0.534
SW 1573 | 0.997 | 1.21 | 0.843 | 1.04 | 0.887 | 0.829 | 0.481 | 0.192 | 0.204 | 0.694 | 0.601 | 0.139 | 0.156 | 0.471 | 0.504 | 0.573 | 0.582 | 0.568
